Activity calls are given as the source filed them. How the calls were made is not given here.
System: CCRIS mutagenicity, Ames/micronucleus/aberration tests
Assay: CCRIS mutagenicity studies
[1] = Test System: AMES SALMONELLA TYPHIMURIUM, Strain/Indicator: TA100, Metabolic Activation: NONE, Method: PREINCUBATION
[2] = Test System: AMES SALMONELLA TYPHIMURIUM, Strain/Indicator: TA98, Metabolic Activation: NONE, Method: STANDARD PLATE
[3] = Test System: AMES SALMONELLA TYPHIMURIUM, Strain/Indicator: TA100, Metabolic Activation: NONE, Method: STANDARD PLATE
[4] = Test System: AMES SALMONELLA TYPHIMURIUM, Strain/Indicator: TA98, Metabolic Activation: RAT, LIVER, S-9, AROCLOR 1254, Method: STANDARD PLATE
[5] = Test System: AMES SALMONELLA TYPHIMURIUM, Strain/Indicator: TA100, Metabolic Activation: RAT, LIVER, S-9, AROCLOR 1254, Method: STANDARD PLATE
[6] = Test System: AMES SALMONELLA TYPHIMURIUM, Strain/Indicator: TA1535, Metabolic Activation: NONE, Method: STANDARD PLATE
[7] = Test System: AMES SALMONELLA TYPHIMURIUM, Strain/Indicator: TA1537, Metabolic Activation: NONE, Method: STANDARD PLATE
[8] = Test System: AMES SALMONELLA TYPHIMURIUM, Strain/Indicator: TA1537, Metabolic Activation: RAT, LIVER, S-9, AROCLOR 1254, Method: STANDARD PLATE
[9] = Test System: AMES SALMONELLA TYPHIMURIUM, Strain/Indicator: TA1538, Metabolic Activation: NONE, Method: STANDARD PLATE
[10] = Test System: AMES SALMONELLA TYPHIMURIUM, Strain/Indicator: TA1538, Metabolic Activation: RAT, LIVER, S-9, AROCLOR 1254, Method: STANDARD PLATE

Question: For `c1cc2c3c(cccc3c1)CC2`, which mutagenic call (Test System: AMES SALMONELLA TYPHIMURIUM, Strain/Indicator: TA97, Metabolic Activation: HAMSTER, LIVER, S-9, AROCLOR 1254 (10%), Method: PREINCUBATION) is on record?
Answer: inactive; negative

Question: And the mutagenic call (Test System: AMES SALMONELLA TYPHIMURIUM, Strain/Indicator: TA97, Metabolic Activation: HAMSTER, LIVER, S-9, AROCLOR 1254 (30%), Method: PREINCUBATION)?
Answer: inactive; negative

Question: And the mutagenic call (Test System: AMES SALMONELLA TYPHIMURIUM, Strain/Indicator: TA97, Metabolic Activation: NONE, Method: PREINCUBATION)?
Answer: inactive; negative

Question: What about the mutagenic call (Test System: AMES SALMONELLA TYPHIMURIUM, Strain/Indicator: TA97, Metabolic Activation: RAT, LIVER, S-9, AROCLOR 1254 (10%), Method: PREINCUBATION) of the same compound?
Answer: inactive; negative

Question: What about the mutagenic call (Test System: AMES SALMONELLA TYPHIMURIUM, Strain/Indicator: TA97, Metabolic Activation: RAT, LIVER, S-9, AROCLOR 1254 (30%), Method: PREINCUBATION) of the same compound?
Answer: inactive; negative

Question: What about the mutagenic call (Test System: AMES SALMONELLA TYPHIMURIUM, Strain/Indicator: TA98, Metabolic Activation: HAMSTER, LIVER, S-9, AROCLOR 1254 (10%), Method: PREINCUBATION) of the same compound?
Answer: inactive; negative

Question: And the mutagenic call (Test System: AMES SALMONELLA TYPHIMURIUM, Strain/Indicator: TA98, Metabolic Activation: HAMSTER, LIVER, S-9, AROCLOR 1254 (30%), Method: PREINCUBATION)?
Answer: inactive; negative

Question: And the mutagenic call (Test System: AMES SALMONELLA TYPHIMURIUM, Strain/Indicator: TA98, Metabolic Activation: NONE, Method: PREINCUBATION)?
Answer: inactive; negative

Question: What about the mutagenic call (Test System: AMES SALMONELLA TYPHIMURIUM, Strain/Indicator: TA98, Metabolic Activation: RAT, LIVER, S-9, AROCLOR 1254 (10%), Method: PREINCUBATION) of the same compound?
Answer: inactive; negative

Question: What about the mutagenic call (Test System: AMES SALMONELLA TYPHIMURIUM, Strain/Indicator: TA98, Metabolic Activation: RAT, LIVER, S-9, AROCLOR 1254 (30%), Method: PREINCUBATION) of the same compound?
Answer: inactive; negative

Question: And the mutagenic call (Test System: AMES SALMONELLA TYPHIMURIUM, Strain/Indicator: TA100, Metabolic Activation: HAMSTER, LIVER, S-9, AROCLOR 1254 (10%), Method: PREINCUBATION)?
Answer: inactive; negative

Question: And the mutagenic call (Test System: AMES SALMONELLA TYPHIMURIUM, Strain/Indicator: TA100, Metabolic Activation: HAMSTER, LIVER, S-9, AROCLOR 1254 (30%), Method: PREINCUBATION)?
Answer: inactive; negative

Question: And the mutagenic call [1]?
Answer: inactive; negative

Question: And the mutagenic call (Test System: AMES SALMONELLA TYPHIMURIUM, Strain/Indicator: TA100, Metabolic Activation: RAT, LIVER, S-9, AROCLOR 1254 (10%), Method: PREINCUBATION)?
Answer: inactive; negative

Question: And the mutagenic call (Test System: AMES SALMONELLA TYPHIMURIUM, Strain/Indicator: TA100, Metabolic Activation: RAT, LIVER, S-9, AROCLOR 1254 (30%), Method: PREINCUBATION)?
Answer: inactive; negative

Question: And the mutagenic call (Test System: AMES SALMONELLA TYPHIMURIUM, Strain/Indicator: TA1535, Metabolic Activation: HAMSTER, LIVER, S-9, AROCLOR 1254 (10%), Method: PREINCUBATION)?
Answer: inactive; negative

Question: And the mutagenic call (Test System: AMES SALMONELLA TYPHIMURIUM, Strain/Indicator: TA1535, Metabolic Activation: HAMSTER, LIVER, S-9, AROCLOR 1254 (30%), Method: PREINCUBATION)?
Answer: inactive; negative

Question: And the mutagenic call (Test System: AMES SALMONELLA TYPHIMURIUM, Strain/Indicator: TA1535, Metabolic Activation: NONE, Method: PREINCUBATION)?
Answer: inactive; negative

Question: What about the mutagenic call (Test System: AMES SALMONELLA TYPHIMURIUM, Strain/Indicator: TA1535, Metabolic Activation: RAT, LIVER, S-9, AROCLOR 1254 (10%), Method: PREINCUBATION) of the same compound?
Answer: inactive; negative

Question: What about the mutagenic call (Test System: AMES SALMONELLA TYPHIMURIUM, Strain/Indicator: TA1535, Metabolic Activation: RAT, LIVER, S-9, AROCLOR 1254 (30%), Method: PREINCUBATION) of the same compound?
Answer: inactive; negative

Question: And the mutagenic call (Test System: AMES SALMONELLA TYPHIMURIUM, Strain/Indicator: TA1537, Metabolic Activation: HAMSTER, LIVER, S-9, AROCLOR 1254 (30%), Method: PREINCUBATION)?
Answer: inactive; negative

Question: What about the mutagenic call (Test System: AMES SALMONELLA TYPHIMURIUM, Strain/Indicator: TA1537, Metabolic Activation: NONE, Method: PREINCUBATION) of the same compound?
Answer: inactive; negative

Question: And the mutagenic call (Test System: AMES SALMONELLA TYPHIMURIUM, Strain/Indicator: TA1537, Metabolic Activation: RAT, LIVER, S-9, AROCLOR 1254 (30%), Method: PREINCUBATION)?
Answer: inactive; negative

Question: What does the source list for `CN(C)c1ccc(C(c2ccccc2)c2ccc(N(C)C)cc2)cc1`?
Answer: mutagenic call (End Point: IN VIVO MICRONUCLEUS, Test System: PERIPHERAL BLOOD ERYTHROCYTES, Species: MOUSE, Strain/Sex: BIG BLUE B6C3F1/FEMALE, Route: DIET): inactive; negative; mutagenic call (Test System: AMES SALMONELLA TYPHIMURIUM, Strain/Indicator: TA97A, Metabolic Activation: NONE, Method: STANDARD PLATE): inactive; negative; mutagenic call (Test System: AMES SALMONELLA TYPHIMURIUM, Strain/Indicator: TA97A, Metabolic Activation: RAT LIVER S-9, 3-METHYLCHOLANTHRENE, PHENOBARBITAL, Method: STANDARD PLATE): inactive; negative; mutagenic call [2]: inactive; negative; mutagenic call (Test System: AMES SALMONELLA TYPHIMURIUM, Strain/Indicator: TA98, Metabolic Activation: RAT LIVER S-9, 3-METHYLCHOLANTHRENE, PHENOBARBITAL, Method: STANDARD PLATE): inactive; negative; mutagenic call [3]: inactive; negative; mutagenic call (Test System: AMES SALMONELLA TYPHIMURIUM, Strain/Indicator: TA100, Metabolic Activation: RAT LIVER S-9, 3-METHYLCHOLANTHRENE, PHENOBARBITAL, Method: STANDARD PLATE): inactive; negative; mutagenic call (Test System: AMES SALMONELLA TYPHIMURIUM, Strain/Indicator: TA102, Metabolic Activation: NONE, Method: STANDARD PLATE): inactive; negative; mutagenic call (Test System: AMES SALMONELLA TYPHIMURIUM, Strain/Indicator: TA102, Metabolic Activation: RAT LIVER S-9, 3-METHYLCHOLANTHRENE, PHENOBARBITAL, Method: STANDARD PLATE): inactive; negative; mutagenic call (Test System: CHO/HGPRT, Strain/Indicator: CHO-K1, Metabolic Activation: NONE, Method: STANDARD PLATE): inactive; negative; mutagenic call (Test System: CHO/HGPRT, Strain/Indicator: CHO-K1, Metabolic Activation: RAT LIVER S-9, 3-METHYLCHOLANTHRENE, PHENOBARBITAL, Method: STANDARD PLATE): inactive; negative

Question: `Nc1c(C(=O)O)cc([N+](=O)[O-])c2c1C(=O)c1ccccc1C2=O` was tested. Which mutagenic call [2] did it give?
Answer: active; positive

Question: And the mutagenic call [4]?
Answer: active; positive

Question: And the mutagenic call [3]?
Answer: active; positive

Question: And the mutagenic call [5]?
Answer: active; positive

Question: And the mutagenic call [6]?
Answer: inactive; negative

Question: What about the mutagenic call [7] of the same compound?
Answer: active; positive

Question: And the mutagenic call [8]?
Answer: active; positive

Question: And the mutagenic call [9]?
Answer: active; positive

Question: What about the mutagenic call [10] of the same compound?
Answer: active; positive

Question: What about the mutagenic call (Test System: AMES SALMONELLA TYPHIMURIUM, Strain/Indicator: TA1978, Metabolic Activation: NONE, Method: STANDARD PLATE) of the same compound?
Answer: active; positive

Question: `O=C1c2cc(S(=O)(=O)O)ccc2C(=O)c2c1cccc2[N+](=O)[O-]` was tested. Which mutagenic call [2] did it give?
Answer: active; positive

Question: What about the mutagenic call [4] of the same compound?
Answer: active; positive

Question: And the mutagenic call [5]?
Answer: inactive; negative

Question: And the mutagenic call [6]?
Answer: inactive; negative

Question: And the mutagenic call (Test System: AMES SALMONELLA TYPHIMURIUM, Strain/Indicator: TA1535, Metabolic Activation: RAT, LIVER, S-9, AROCLOR 1254, Method: STANDARD PLATE)?
Answer: inactive; negative

Question: What about the mutagenic call [7] of the same compound?
Answer: active; positive

Question: And the mutagenic call [8]?
Answer: active; positive

Question: What about the mutagenic call [9] of the same compound?
Answer: active; positive

Question: And the mutagenic call [10]?
Answer: active; positive

Question: `CC(=O)O[C@@H]1[C@@H](O)[C@H]2O[C@@H]3C=C(C)C(=O)[C@@H](O)[C@]3(CO)[C@]1(C)[C@]21CO1` was tested. Which mutagenic call [2] did it give?
Answer: inactive; negative

Question: What about the mutagenic call (Test System: AMES SALMONELLA TYPHIMURIUM, Strain/Indicator: TA98, Metabolic Activation: RAT LIVER S-9, DELOREM 103, Method: STANDARD PLATE) of the same compound?
Answer: inactive; negative

Question: And the mutagenic call [1]?
Answer: inactive; negative

Question: What about the mutagenic call [3] of the same compound?
Answer: inactive; negative

Question: And the mutagenic call (Test System: AMES SALMONELLA TYPHIMURIUM, Strain/Indicator: TA100, Metabolic Activation: RAT LIVER S-9, DELOREM 103, Method: STANDARD PLATE)?
Answer: inactive; negative

Question: What about the mutagenic call (Test System: AMES SALMONELLA TYPHIMURIUM, Strain/Indicator: TA100, Metabolic Activation: RAT, LIVER, S-9, PHENOBARBITAL, Method: PREINCUBATION) of the same compound?
Answer: inactive; negative

— PubChem BioAssay AID1259407 (Chemical Carcinogenesis Research Information System (CCRIS), 2018)
